“And” between values parts separate entries of the source, which are not always exact repeats. Equal entries are not always repeated.
Test system: Donor 3 GMA T-Cell Lines
Test: ATP proliferation assay (CellTiter Glo), Donor 3 GMA T-cell lines, incl. reactivity to non-canonical GA peptides
Format: cell-based, human
Conditions: for proliferation response to non-canonical GA peptides: 0, 1, 3, 10, 30 μg/mL; for Non-Canonical Peptide Non-Reactivity: proliferation <2 times no antigen control; for Non-Canonical Peptide Reactivity: at least one proliferation value >=2 times no antigen control

poly (Glu-Lys-Tyr; 6:3:1) [GLT 631]
proliferation response to non-canonical GA peptides (165-B5G and 165-E7G, Day 81): responded well | Non-Canonical Peptide Non-Reactivity (165-B5G): GLT 631 | Non-Canonical Peptide Non-Reactivity (165-C5G): GLT 631 | Non-Canonical Peptide Reactivity (165-E7G): GLT 631 | Non-Canonical Peptide Non-Reactivity (165-E9G): GLT 631 | Non-Canonical Peptide Non-Reactivity (165-F5G): GLT 631 | Non-Canonical Peptide Non-Reactivity (165-F10G): GLT 631 | proliferation response to non-canonical GA peptides (165-H11G, Day 50): responded | Non-Canonical Peptide Reactivity (165-H11G): GLT 631 | Reactive T-Cell Line (Donor 3 GMA lines, at least a 50% increase in proliferation relative to a control after stimulation with the non-canonical GA peptide): 165-H11G (Donor 3) | Nonreactive T-Cell Line (Donor 3 GMA lines, stimulation with the non-canonical GA peptide): 165-B5G (Donor 3) and 165-C5G (Donor 3) and 165-C8G (Donor 3) and 165-E7G (Donor 3) and 165-E9G (Donor 3) and 165-F5G (Donor 3) and 165-F10G (Donor 3) | Proliferation (luminescent ATP assay), Mean (T-cell line 165-05G, 1 μg/mL antigen, Day 50 of culturing, No Antigen Value 2149): 1871 RLU | Proliferation (luminescent ATP assay), Mean (T-cell line 165-05G, 3 μg/mL antigen, Day 50 of culturing, No Antigen Value 2149): 2268 RLU | Proliferation (luminescent ATP assay), Mean (T-cell line 165-05G, 10 μg/mL antigen, Day 50 of culturing, No Antigen Value 2149): 2256 RLU | Proliferation (luminescent ATP assay), Mean (T-cell line 165-05G, 30 μg/mL antigen, Day 50 of culturing, No Antigen Value 2149): 2137 RLU | Proliferation (luminescent ATP assay), Mean (T-cell line 165-B5G, 1 μg/mL antigen, Day 81 of culturing, No Antigen Value 2432): 4288 RLU | Proliferation (luminescent ATP assay), Mean (T-cell line 165-B5G, 1.25 μg/mL antigen, Day 55 of culturing, No Antigen Value 846): 1054 RLU | Proliferation (luminescent ATP assay), Mean (T-cell line 165-B5G, 2.5 μg/mL antigen, Day 55 of culturing, No Antigen Value 846): 1159 RLU | Proliferation (luminescent ATP assay), Mean (T-cell line 165-B5G, 3 μg/mL antigen, Day 81 of culturing, No Antigen Value 2432): 5153 RLU | Proliferation (luminescent ATP assay), Mean (T-cell line 165-B5G, 5 μg/mL antigen, Day 55 of culturing, No Antigen Value 846): 1687 RLU | Proliferation (luminescent ATP assay), Mean (T-cell line 165-B5G, 10 μg/mL antigen, Day 55 of culturing, No Antigen Value 846): 3589 RLU | Proliferation (luminescent ATP assay), Mean (T-cell line 165-B5G, 10 μg/mL antigen, Day 81 of culturing, No Antigen Value 2432): 11847 RLU | Proliferation (luminescent ATP assay), Mean (T-cell line 165-B5G, 30 μg/mL antigen, Day 81 of culturing, No Antigen Value 2432): 11416 RLU | Proliferation (luminescent ATP assay), Mean (T-cell line 165-C5G, 1.25 μg/mL antigen, autologous B-LCL): 485 RLU | Proliferation (luminescent ATP assay), Mean (T-cell line 165-C5G, 2.5 μg/mL antigen, autologous B-LCL): 552 RLU | Proliferation (luminescent ATP assay), Mean (T-cell line 165-C5G, 5 μg/mL antigen, autologous B-LCL): 585 RLU | Proliferation (luminescent ATP assay), Mean (T-cell line 165-C5G, 10 μg/mL antigen, autologous B-LCL): 579 RLU | Proliferation (luminescent ATP assay), Mean (T-cell line 165-E7G, 1 μg/mL antigen, Day 81 of culturing, No Antigen Value 2145): 3992 RLU | Proliferation (luminescent ATP assay), Mean (T-cell line 165-E7G, 1.25 μg/mL antigen, autologous B-LCL, Day 55): 2983 RLU | Proliferation (luminescent ATP assay), Mean (T-cell line 165-E7G, 2.5 μg/mL antigen, autologous B-LCL, Day 55): 3783 RLU | Proliferation (luminescent ATP assay), Mean (T-cell line 165-E7G, 3 μg/mL antigen, Day 81 of culturing, No Antigen Value 2145): 5133 RLU | Proliferation (luminescent ATP assay), Mean (T-cell line 165-E7G, 5 μg/mL antigen, autologous B-LCL, Day 55): 5821 RLU | Proliferation (luminescent ATP assay), Mean (T-cell line 165-E7G, 10 μg/mL antigen, Day 81 of culturing, No Antigen Value 2145): 12006 RLU | Proliferation (luminescent ATP assay), Mean (T-cell line 165-E7G, 10 μg/mL antigen, autologous B-LCL, Day 55): 5710 RLU | Proliferation (luminescent ATP assay), Mean (T-cell line 165-E7G, 30 μg/mL antigen, Day 81 of culturing, No Antigen Value 2145): 12836 RLU | Proliferation (luminescent ATP assay), Mean (T-cell line 165-E9G, 1 μg/mL antigen, Day 50 of culturing, No Antigen Value 1742): 1630 RLU | Proliferation (luminescent ATP assay), Mean (T-cell line 165-E9G, 1.25 μg/mL antigen, autologous B-LCL): 142 RLU | Proliferation (luminescent ATP assay), Mean (T-cell line 165-E9G, 2.5 μg/mL antigen, autologous B-LCL): 195 RLU | Proliferation (luminescent ATP assay), Mean (T-cell line 165-E9G, 3 μg/mL antigen, Day 50 of culturing, No Antigen Value 1742): 1600 RLU | Proliferation (luminescent ATP assay), Mean (T-cell line 165-E9G, 5 μg/mL antigen, autologous B-LCL): 233 RLU | Proliferation (luminescent ATP assay), Mean (T-cell line 165-E9G, 10 μg/mL antigen, autologous B-LCL): 312 RLU | Proliferation (luminescent ATP assay), Mean (T-cell line 165-E9G, 30 μg/mL antigen, Day 50 of culturing, No Antigen Value 1742): 2152 RLU | Proliferation (luminescent ATP assay), Mean (T-cell line 165-E9G, 10 μpg/mL antigen, Day 50 of culturing, No Antigen Value 1742): 2341 RLU | Proliferation (luminescent ATP assay), Mean (T-cell line 165-F5G, 1.25 μg/mL antigen, autologous B-LCL): 131 RLU | Proliferation (luminescent ATP assay), Mean (T-cell line 165-F5G, 2.5 μg/mL antigen, autologous B-LCL): 143 RLU | Proliferation (luminescent ATP assay), Mean (T-cell line 165-F5G, 5 μg/mL antigen, autologous B-LCL): 176 RLU
